Key:
Assay in all cases: relative viability (nuclei count vs DMSO), 5 days (fraction); higher = more cells survive
[1] = compound: CC1(COc2ccc3c(c2)ncn3-c2ccc3cccc(N4CCC(N)CC4)c3n2)COC1 [Crenolanib] + Nc1nc2[nH]cc(CCc3ccc(C(=O)N[C@@H](CCC(=O)O)C(=O)O)cc3)c2c(=O)[nH]1 [Pemetrexed] (partner 0.2 µM)
Method in brief: (§1)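 Cells from lung cancer lines were seeded into 1536-well plates and, one day later, dosed by pin tool. Treatments were either a single drug or a fixed dose of an anchor drug with five library-drug doses (not always all listed) in √10 steps. After 5 days, nuclei were stained in a one-step fixation (final 0.05% Triton X-100, 1% formaldehyde, 1 ug/ml Hoechst) and counted on 4× images, and relative viability is the treated-to-vehicle nuclei ratio, as the median of duplicate plates.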

[2] = compound: O=C1NC(=O)[C@@H](c2cn3c4c(cccc24)CCC3)[C@@H]1c1c[nH]c2ccccc12 [Tivantinib] + COc1cccc2cc(-c3nc([C@H]4CC[C@H](C(=O)O)CC4)n4ncnc(N)c34)[nH]c12 [OSI-027] (partner 0.5 µM)
Method in brief: as §1

[3] = compound: O=C1NC(=O)[C@@H](c2cn3c4c(cccc24)CCC3)[C@@H]1c1c[nH]c2ccccc12 [Tivantinib] + Nc1ncn([C@H]2C[C@H](O)[C@@H](CO)O2)c(=O)n1 [Decitabine] (partner 2 µM)
Method in brief: as §1

[4] = compound: O=C1NC(=O)[C@@H](c2cn3c4c(cccc24)CCC3)[C@@H]1c1c[nH]c2ccccc12 [Tivantinib] + O=C(c1cc(Cc2n[nH]c(=O)c3ccccc23)ccc1F)N1CCN(C(=O)C2CC2)CC1 [Olaparib] (partner 8 µM)
Method in brief: as §1

Cell Line | relative viability ([1]; first compound 0.01 µM) | relative viability ([1]; first compound 0.03162 µM) | relative viability ([1]; first compound 0.1 µM) | relative viability ([1]; first compound 0.3162 µM) | relative viability ([1]; first compound 1 µM) | relative viability ([2]; first compound 0.01 µM) | relative viability ([2]; first compound 0.03162 µM) | relative viability ([2]; first compound 0.1 µM) | relative viability ([2]; first compound 0.3162 µM) | relative viability ([3]; first compound 0.01 µM) | relative viability ([3]; first compound 0.03162 µM) | relative viability ([3]; first compound 0.1 µM) | relative viability ([3]; first compound 0.3162 µM) | relative viability ([4]; first compound 0.01 µM) | relative viability ([4]; first compound 0.03162 µM) | relative viability ([4]; first compound 0.1 µM) | relative viability ([4]; first compound 0.3162 µM)
HCC-78 | 0.864 | 1.01 | 0.909 | 0.956 | 0.865 | 0.36 | 0.37 | 0.367 | 0.32 | 0.707 | 0.694 | 0.667 | 0.702 | 0.99 | 0.767 | 0.709 | 0.62
HOP-62 | 0.322 | 0.345 | 0.373 | 0.362 | 0.417 | 0.831 | 0.566 | 0.876 | 0.887 | 0.173 | 0.191 | 0.196 | 0.242 | 0.463 | 0.451 | 0.329 | 0.477
NCI-H1623 | – | – | – | – | – | 0.434 | 0.442 | 0.487 | – | – | – | – | – | – | – | – | –
NCI-H2405 | 1.11 | – | 0.869 | 1.11 | 1.06 | 0.717 | 0.637 | 0.632 | 0.574 | 0.754 | 0.789 | 0.73 | 0.79 | 1.02 | 0.895 | 0.868 | 0.867
PC-3 [JPC-3] | 1.11 | – | 1.01 | 1.21 | 0.889 | 0.841 | 0.724 | 0.716 | 0.48 | 0.766 | 0.798 | 0.839 | 0.6 | 1.09 | 1.12 | 1.11 | 0.662
NCI-H1666 | 0.886 | 0.855 | 0.855 | 0.921 | 0.831 | 0.83 | 0.743 | 0.876 | 0.687 | 0.745 | 0.684 | 0.748 | 0.747 | 0.734 | 0.736 | 0.696 | 0.731
HCC-15 | 0.23 | 0.215 | 0.227 | 0.228 | 0.213 | 0.76 | 0.53 | 0.614 | 0.7 | 0.715 | 0.636 | 0.538 | 0.755 | 0.725 | 0.756 | 0.643 | 0.917
NCI-H1651 | 0.573 | 0.599 | 0.592 | 0.566 | 0.62 | 0.846 | 0.654 | 0.625 | 0.713 | 0.592 | 0.659 | 0.608 | 0.583 | 0.207 | 0.187 | 0.194 | 0.195
NCI-H1395 | 0.88 | 0.768 | 0.924 | 0.831 | 0.864 | 0.678 | 0.662 | 0.651 | 0.599 | 0.736 | 0.665 | 0.845 | 0.713 | 0.513 | 0.469 | 0.44 | 0.482
EPLC-272H | 0.322 | 0.342 | 0.346 | 0.336 | 0.353 | 0.319 | 0.32 | 0.293 | 0.147 | 0.389 | 0.331 | 0.383 | 0.31 | 0.97 | 0.698 | 0.657 | 0.257
LXF-289 | 0.853 | 0.905 | 0.865 | 0.922 | 0.897 | 0.77 | 0.724 | 0.761 | 0.858 | 0.37 | 0.375 | 0.367 | 0.367 | 1.02 | 1.05 | 1.01 | 1.02
NCI-H1437 | 0.336 | 0.3 | 0.297 | 0.352 | 0.336 | 0.911 | 0.795 | 0.811 | 0.886 | 0.57 | 0.568 | 0.497 | 0.545 | 0.605 | 0.629 | 0.607 | 0.588
HCC-827 | 0.256 | 0.277 | 0.195 | 0.26 | 0.268 | 0.764 | 0.844 | 0.708 | 0.253 | 0.312 | 0.396 | 0.316 | – | 0.661 | 0.681 | 0.673 | –
NCI-H1650 | 0.438 | 0.395 | 0.38 | 0.371 | 0.459 | 0.681 | 0.535 | 0.634 | 0.532 | 0.406 | 0.389 | 0.416 | 0.413 | 0.832 | 0.817 | 0.678 | 0.624
HCC-366 | 0.179 | 0.161 | 0.171 | 0.181 | 0.157 | 0.941 | 0.807 | 0.848 | 0.934 | 0.349 | 0.289 | 0.324 | 0.301 | 0.278 | 0.35 | 0.308 | 0.346
EKVX | 0.413 | 0.423 | 0.401 | 0.379 | 0.387 | 0.711 | 0.663 | 0.679 | – | 0.312 | 0.351 | 0.381 | 0.153 | 0.812 | 0.893 | 0.834 | 0.296
NCI-H2126 | 0.725 | 0.678 | 0.694 | 0.715 | 0.605 | 0.639 | 0.63 | 0.658 | 0.549 | 0.57 | 0.549 | 0.587 | 0.547 | 0.94 | 0.933 | 0.881 | 0.813
LK-2 | 0.314 | 0.268 | 0.263 | 0.27 | 0.274 | 0.225 | – | 0.219 | 0.243 | 0.233 | 0.196 | 0.262 | 0.29 | 0.903 | 0.639 | 0.73 | 0.687
NCI-H1563 | 0.736 | 0.679 | 0.711 | 0.759 | 0.742 | 0.78 | 0.756 | 0.718 | 0.745 | – | – | – | – | – | – | – | –

Cell Line | relative viability ([1]; first compound 0.01 µM) | relative viability ([1]; first compound 0.03162 µM) | relative viability ([1]; first compound 0.1 µM) | relative viability ([1]; first compound 0.3162 µM) | relative viability ([1]; first compound 1 µM) | relative viability ([2]; first compound 0.01 µM) | relative viability ([2]; first compound 0.03162 µM) | relative viability ([2]; first compound 0.1 µM) | relative viability ([2]; first compound 0.3162 µM) | relative viability ([3]; first compound 0.01 µM) | relative viability ([3]; first compound 0.03162 µM) | relative viability ([3]; first compound 0.1 µM) | relative viability ([3]; first compound 0.3162 µM) | relative viability ([4]; first compound 0.01 µM) | relative viability ([4]; first compound 0.03162 µM) | relative viability ([4]; first compound 0.1 µM) | relative viability ([4]; first compound 0.3162 µM)
COR-L23 | 0.185 | 0.189 | 0.201 | 0.199 | 0.202 | 0.783 | 0.7 | 0.787 | 0.919 | 0.496 | 0.446 | 0.433 | 0.445 | 0.339 | 0.417 | 0.328 | 0.326
ABC-1 | – | – | – | – | – | 0.586 | 0.422 | 0.538 | 0.603 | 1.23 | 1.22 | 0.825 | 0.968 | 0.875 | 1.17 | 0.626 | 0.955
SW 900 | 0.502 | – | 0.48 | 0.509 | 0.484 | 0.605 | 0.443 | 0.583 | 0.533 | 0.461 | 0.46 | 0.482 | 0.443 | 0.939 | 1.03 | 0.809 | 0.742
PC-14 | 0.137 | 0.127 | 0.16 | 0.133 | 0.143 | 0.942 | 0.784 | 0.755 | 0.598 | 0.238 | 0.234 | 0.223 | 0.142 | 0.238 | 0.305 | 0.228 | 0.26
NCI-H1648 | 0.742 | – | 0.821 | 0.699 | 0.716 | 0.254 | 0.259 | 0.238 | – | – | 0.507 | 0.513 | 0.397 | – | 0.889 | 0.611 | 0.528
A549 | – | – | – | – | – | – | – | – | – | 0.246 | 0.276 | 0.228 | 0.294 | 0.204 | 0.253 | 0.301 | 0.214
A-427 | 1.01 | – | 0.99 | 0.989 | 0.834 | 0.556 | 0.413 | 0.487 | 0.456 | 0.602 | 0.579 | 0.508 | 0.518 | 0.761 | 0.794 | 0.723 | 0.685
NCI-H1915 | 0.536 | 0.481 | 0.511 | 0.528 | 0.531 | 0.626 | 0.543 | 0.648 | 0.715 | 0.279 | 0.248 | 0.263 | 0.254 | 0.262 | 0.227 | 0.244 | 0.239
LOU-NH91 | 0.399 | 0.45 | 0.353 | 0.423 | 0.383 | 0.657 | 0.709 | 0.729 | 0.465 | 0.825 | 0.805 | 0.803 | 0.669 | 0.861 | 0.888 | 0.9 | 0.715
NCI-H1734 | 0.441 | 0.423 | 0.423 | 0.395 | 0.38 | 0.646 | 0.553 | 0.643 | 0.576 | 0.532 | 0.487 | 0.506 | 0.427 | 0.61 | 0.615 | 0.577 | 0.495
LCLC-97TM1 | 0.192 | 0.188 | 0.182 | 0.197 | 0.184 | 0.44 | 0.473 | 0.428 | 0.36 | 0.232 | 0.226 | 0.226 | 0.211 | 0.39 | 0.414 | 0.455 | 0.407
NCI-H1703 | – | – | – | – | – | – | – | – | – | – | – | – | – | 0.524 | 0.444 | 0.527 | 0.309
Calu-6 | – | – | – | – | – | – | – | – | – | – | – | – | – | 0.611 | 0.572 | – | 0.564
EBC-1 | – | – | – | – | – | – | – | – | – | – | – | – | – | 0.708 | 0.681 | 0.781 | 0.711
NCI-H727 | – | – | – | – | – | 0.781 | 0.484 | 0.515 | 0.468 | 0.748 | 0.924 | 0.882 | – | 0.746 | 0.785 | 0.593 | –
NCI-H1299 | – | – | – | – | – | – | – | – | – | – | – | – | – | 0.941 | 0.933 | 1.01 | 0.93
NCI-H2228 | 0.3 | 0.33 | 0.34 | 0.337 | 0.324 | – | 0.548 | 0.541 | 0.234 | – | – | – | – | 0.43 | 0.815 | 0.678 | 0.587
IA-LM | – | – | – | – | – | – | – | – | – | – | – | – | – | 0.907 | – | 0.789 | 0.809
CAL-12T | 1.28 | 1.27 | 1.22 | 1.34 | 1.31 | 0.791 | 0.541 | 0.634 | 0.256 | – | – | – | – | 0.731 | 0.643 | 0.677 | 0.613
